Results published in ChEMBL document CHEMBL1201862, “PubChem BioAssay data set” (2004).
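Cultured in 96-well plates, cells were exposed to test compound for 48 hours across five concentrations. The concentration for 50% growth inhibition is given as GI50.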 The source made the active and inactive calls. Cut-off read from the data, not from the text of the source: active = GI50 up to about 1.1 µM and inactive = higher.

What was measured:
Assay in all cases: NCI anticancer screen, dose series, 48 h
786-0 = test system: 786-0
A498 = test system: A498
A549 = test system: A549
ACHN = test system: ACHN
BT-549 = test system: BT-549
CAKI-1 = test system: CAKI-1
CCRF-CEM = test system: CCRF-CEM
COLO 205 = test system: COLO 205
DU-145 = test system: DU-145
EKVX = test system: EKVX
HCC 2998 = test system: HCC 2998
HCT-116 = test system: HCT-116
HCT-15 = test system: HCT-15
HL-60 = test system: HL-60
HOP-62 = test system: HOP-62
HOP-92 = test system: HOP-92
HT-29 = test system: HT-29
Hs-578T = test system: Hs-578T
IGROV-1 = test system: IGROV-1
K562 = test system: K562
KM12 = test system: KM12
LOX IMVI = test system: LOX IMVI
M14 = test system: M14
MCF7 = test system: MCF7
MDA-MB-231 = test system: MDA-MB-231
MDA-MB-435 = test system: MDA-MB-435
MDA-N = test system: MDA-N
MOLT-4 = test system: MOLT-4
Malme-3M = test system: Malme-3M
NCI-H226 = test system: NCI-H226
NCI-H23 = test system: NCI-H23
NCI-H460 = test system: NCI-H460
NCI-H522 = test system: NCI-H522
NCI/ADR-RES = test system: NCI/ADR-RES
OVCAR-3 = test system: OVCAR-3
OVCAR-4 = test system: OVCAR-4
OVCAR-5 = test system: OVCAR-5
OVCAR-8 = test system: OVCAR-8
RPMI-8226 = test system: RPMI-8226
SF-268 = test system: SF-268
SF-295 = test system: SF-295
SF-539 = test system: SF-539
SK-MEL-2 = test system: SK-MEL-2
SK-MEL-5 = test system: SK-MEL-5
SK-OV-3 = test system: SK-OV-3
SN12C = test system: SN12C
SNB-19 = test system: SNB-19
SNB-75 = test system: SNB-75
SW-620 = test system: SW-620
T47D = test system: T47D
TK-10 = test system: TK-10
U-251 = test system: U-251
UACC-257 = test system: UACC-257
UACC-62 = test system: UACC-62
UO-31 = test system: UO-31
PC-3 = test system: PC-3
RXF 393 = test system: RXF 393
SK-MEL-28 = test system: SK-MEL-28
SR = test system: SR

Measured: GI50

Cc1ccc(C2(c3ccc(F)cc3)OC(=O)c3ccccc32)c(O)c1 (stereo unspecified)
inactive: 786-0 15.4 µM | A498 19.6 µM | A549 15.8 µM | ACHN 14.8 µM | BT-549 19.7 µM | CAKI-1 11.6 µM | CCRF-CEM 18.7 µM | COLO 205 21.1 µM | DU-145 15.4 µM | EKVX 16 µM | HCC 2998 22.4 µM | HCT-116 12.9 µM | HL-60 14 µM | HOP-62 14.6 µM | HOP-92 16.6 µM | HT-29 17.7 µM | Hs-578T 20.1 µM | IGROV-1 14.4 µM | K562 14.2 µM | KM12 15.5 µM | LOX IMVI 13.9 µM | M14 15 µM | MCF7 17 µM | MDA-MB-231 17.9 µM | MDA-MB-435 12.4 µM | MDA-N 12 µM | MOLT-4 10.8 µM | Malme-3M > 10 µM | NCI-H226 15 µM | NCI-H23 19.9 µM | NCI-H460 17 µM | NCI-H522 14.5 µM | NCI/ADR-RES 16.1 µM | OVCAR-3 3.56 µM | OVCAR-4 17 µM | OVCAR-5 14.4 µM | OVCAR-8 18.2 µM | RPMI-8226 16.4 µM | SF-268 19.5 µM | SF-295 11.5 µM | SF-539 18.9 µM | SK-MEL-2 14.7 µM | SK-MEL-5 16.3 µM | SK-OV-3 11.9 µM | SN12C 14.7 µM | SNB-19 16.6 µM | SNB-75 12.3 µM | SW-620 13.6 µM | T47D 13.5 µM | TK-10 15.1 µM | U-251 18.5 µM | UACC-257 15.6 µM | UACC-62 10.5 µM | UO-31 5.5 µM
15.2 µM: HCT-15

O=Cc1cccc2ccc3ccccc3c12
11.1 µM: HCT-15
inactive: 786-0 17.5 µM | A498 22.4 µM | A549 24.3 µM | ACHN 13.5 µM | BT-549 30.5 µM | CAKI-1 16.1 µM | COLO 205 18.7 µM | DU-145 22.4 µM | HCC 2998 26.2 µM | HCT-116 9.18 µM | HOP-62 15.9 µM | HT-29 12.2 µM | Hs-578T 13.5 µM | KM12 4.02 µM | LOX IMVI 11.3 µM | M14 20 µM | MCF7 14.4 µM | MDA-MB-231 17 µM | MDA-MB-435 18.4 µM | MDA-N 21.6 µM | Malme-3M 16.4 µM | NCI-H226 24.7 µM | NCI-H23 25.1 µM | NCI-H460 21.4 µM | NCI-H522 13.8 µM | NCI/ADR-RES 8.45 µM | OVCAR-3 12.9 µM | OVCAR-8 24.2 µM | PC-3 9.59 µM | RXF 393 16.3 µM | SF-268 11.5 µM | SF-295 17.1 µM | SF-539 5.86 µM | SK-MEL-2 15.1 µM | SK-MEL-5 16.9 µM | SK-OV-3 16.5 µM | SN12C 20.5 µM | SNB-19 7.8 µM | SNB-75 7.35 µM | SW-620 10.4 µM | T47D 15 µM | TK-10 14.3 µM | U-251 5.93 µM | UACC-257 32 µM | UACC-62 28.1 µM | UO-31 24 µM

CN(C(=O)c1ccccc1)C1CCCC(=O)CC1 (stereo unspecified)
inactive: 786-0 > 100 µM | A498 > 100 µM | A549 > 100 µM | ACHN > 100 µM | BT-549 > 100 µM | CAKI-1 > 100 µM | CCRF-CEM > 100 µM | COLO 205 > 100 µM | DU-145 > 100 µM | EKVX > 100 µM | HCC 2998 > 100 µM | HCT-116 > 100 µM | HL-60 > 100 µM | HOP-62 > 100 µM | HOP-92 > 100 µM | HT-29 > 100 µM | Hs-578T > 100 µM | IGROV-1 > 100 µM | K562 > 100 µM | KM12 > 100 µM | LOX IMVI > 100 µM | M14 > 100 µM | MCF7 > 100 µM | MDA-MB-231 > 100 µM | MDA-MB-435 > 100 µM | MDA-N > 100 µM | Malme-3M > 100 µM | NCI-H226 > 100 µM | NCI-H23 > 100 µM | NCI-H460 > 100 µM | NCI-H522 > 100 µM | OVCAR-3 > 100 µM | OVCAR-4 > 100 µM | OVCAR-5 > 100 µM | OVCAR-8 > 100 µM | PC-3 > 100 µM | RPMI-8226 > 100 µM | RXF 393 > 100 µM | SF-268 > 100 µM | SF-295 > 100 µM | SF-539 > 100 µM | SK-MEL-28 > 100 µM | SK-MEL-2 > 100 µM | SK-OV-3 > 100 µM | SN12C > 100 µM | SNB-19 > 100 µM | SNB-75 > 100 µM | SR > 100 µM | SW-620 > 100 µM | T47D > 100 µM | TK-10 > 100 µM | U-251 > 100 µM | UACC-257 > 100 µM | UACC-62 > 100 µM | UO-31 > 100 µM
> 100 µM: HCT-15

CCCCCCC1CC(=O)C1(Cl)Cl (stereo unspecified)
inactive: 786-0 15 µM | A549 > 100 µM | ACHN 18.3 µM | BT-549 21.4 µM | CAKI-1 18.9 µM | CCRF-CEM 2.4 µM | DU-145 26.9 µM | EKVX 59.2 µM | HCC 2998 26.3 µM | HCT-116 16.7 µM | HL-60 2.96 µM | HOP-62 44.7 µM | HT-29 26.7 µM | Hs-578T 20 µM | IGROV-1 25.1 µM | K562 14.7 µM | KM12 22.4 µM | LOX IMVI 14.8 µM | M14 26.7 µM | MCF7 26.4 µM | MDA-MB-231 30.7 µM | MDA-N 25.9 µM | MOLT-4 13.5 µM | Malme-3M 16.1 µM | NCI-H226 43.9 µM | NCI-H23 25.2 µM | NCI-H460 > 10 µM | NCI-H522 17.3 µM | NCI/ADR-RES 32.2 µM | OVCAR-4 29.1 µM | OVCAR-5 > 100 µM | OVCAR-8 23.2 µM | PC-3 25.1 µM | SF-268 20.7 µM | SF-295 33.9 µM | SF-539 31.3 µM | SK-MEL-28 > 10 µM | SK-MEL-2 30.9 µM | SK-MEL-5 17 µM | SK-OV-3 > 100 µM | SN12C 29.2 µM | SNB-19 63.7 µM | SNB-75 16.6 µM | SR > 10 µM | SW-620 19.6 µM | T47D 27.5 µM | TK-10 > 100 µM | U-251 38.3 µM | UACC-257 18.7 µM | UACC-62 20.3 µM | UO-31 19.4 µM
31 µM: HCT-15
active: RPMI-8226 0.377 µM

Cc1cc(S(=O)(=O)Nc2nc(N)n[nH]2)c(Cl)cc1Cl
> 10 µM: HCT-15
inactive: 786-0 > 10 µM | A498 > 10 µM | A549 > 10 µM | ACHN > 10 µM | BT-549 > 10 µM | CAKI-1 > 10 µM | CCRF-CEM > 10 µM | COLO 205 > 10 µM | DU-145 > 10 µM | EKVX > 10 µM | HCC 2998 > 10 µM | HCT-116 > 10 µM | HL-60 > 10 µM | HOP-62 > 10 µM | HT-29 > 10 µM | Hs-578T > 10 µM | IGROV-1 > 10 µM | K562 > 10 µM | KM12 > 10 µM | LOX IMVI > 10 µM | M14 > 10 µM | MDA-MB-231 > 10 µM | MDA-MB-435 > 10 µM | MDA-N > 10 µM | MOLT-4 > 10 µM | Malme-3M > 10 µM | NCI-H226 > 10 µM | NCI-H23 > 10 µM | NCI-H460 > 10 µM | NCI-H522 > 10 µM | NCI/ADR-RES > 10 µM | OVCAR-3 > 10 µM | OVCAR-4 > 10 µM | OVCAR-5 > 10 µM | OVCAR-8 > 10 µM | PC-3 > 10 µM | RPMI-8226 > 10 µM | RXF 393 > 10 µM | SF-268 > 10 µM | SF-295 > 10 µM | SF-539 > 10 µM | SK-MEL-28 > 10 µM | SK-MEL-2 > 10 µM | SK-MEL-5 > 10 µM | SK-OV-3 > 10 µM | SN12C > 10 µM | SNB-19 > 10 µM | SNB-75 > 10 µM | SW-620 > 10 µM | T47D > 10 µM | TK-10 > 10 µM | U-251 > 10 µM | UACC-257 > 10 µM | UACC-62 > 10 µM
